Experimental data taken from patent US20180303807A1, “ANDROGEN RECEPTOR LIGANDS” (DUKE UNIVERSITY, priority 2015, published 2018).
Substitutions are numbered along the chain they refer to. Values belong to the molecule of their own block, whether it stands above or below them.

How the values were obtained:
AR [1] = target: T1, AR (Homo sapiens, UniProt P10275, T878A); assay: In Cell Western AR degradation assay in LNCaP cells; type: cell-based; details: 18 hrs, greater than 50% degradation at 10 μM (method says 20 μM)
T1 construct: endogenous in cells; host or cells: LNCaP cells
T1 sequence (P10275 1-920 T878A): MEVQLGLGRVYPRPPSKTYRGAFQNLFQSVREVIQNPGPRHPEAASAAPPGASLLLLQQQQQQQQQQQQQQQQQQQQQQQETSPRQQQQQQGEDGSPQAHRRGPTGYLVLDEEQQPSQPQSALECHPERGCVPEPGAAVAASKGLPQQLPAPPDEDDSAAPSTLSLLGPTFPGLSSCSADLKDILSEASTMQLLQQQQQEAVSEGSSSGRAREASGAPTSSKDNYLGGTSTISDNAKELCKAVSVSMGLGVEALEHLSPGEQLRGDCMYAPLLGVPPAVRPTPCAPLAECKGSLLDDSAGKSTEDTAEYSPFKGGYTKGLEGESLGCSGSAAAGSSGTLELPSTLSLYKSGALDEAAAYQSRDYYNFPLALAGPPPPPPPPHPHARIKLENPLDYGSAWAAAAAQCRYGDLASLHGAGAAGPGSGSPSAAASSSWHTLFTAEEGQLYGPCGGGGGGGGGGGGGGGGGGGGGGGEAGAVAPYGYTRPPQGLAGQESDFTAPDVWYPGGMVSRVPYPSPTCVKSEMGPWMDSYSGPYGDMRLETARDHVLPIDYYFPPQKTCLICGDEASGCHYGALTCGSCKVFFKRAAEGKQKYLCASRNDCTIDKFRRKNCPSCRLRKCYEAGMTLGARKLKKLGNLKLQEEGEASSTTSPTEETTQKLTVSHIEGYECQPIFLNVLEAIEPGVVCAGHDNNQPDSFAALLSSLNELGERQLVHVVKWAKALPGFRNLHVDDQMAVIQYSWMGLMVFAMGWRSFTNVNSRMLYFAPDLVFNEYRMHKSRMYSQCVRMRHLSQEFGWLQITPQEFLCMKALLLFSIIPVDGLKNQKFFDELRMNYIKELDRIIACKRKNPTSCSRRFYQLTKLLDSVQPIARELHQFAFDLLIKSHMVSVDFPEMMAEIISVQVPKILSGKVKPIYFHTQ
Procedure: In Cell Western (AR degradation Assay, Table 2, B10). LNCaP cells were plated in 96-well clear bottom black plates (20K cells/well) in RPMI supplemented with 8% CFS. Following 48 hr incubation, cells were treated with hormone (20 μM test compound) for 18 hrs. Cells were fixed with formaldehyde (3.7%) and permeabilized using PBS (0.1% TRITON X-100). Cells were incubated with anti-AR antibody (N20, 1:2000), washed with PBS (0.1% Tween), and stained with 2nd antibody (Biotium CF770 goat anti-rabbit, 1:2000). AR protein expression was assessed using the LI-COR Odyssey imaging system. DRAQ5 (DNA stain, 1:10,000, Thermo Scientific) was used to normalize AR protein expression.
For B4-B7, scoring system is based on the relative AR target gene agonist/antagonist activity of test compounds when compared to benchmark compounds enzalutamide or bicalutamide. […] The lack of agonist activity is desirable for therapies intended to treat CRPC. For B4 and B6, a score of 1 indicates less agonism (highly desired activity) than benchmark compound enzalutamide, a score of 2 indicates equal agonism to enzalutamide (desirable), a score of 3 indicates agonism between enzalutamide and bicalutamide (less desirable activity), a score of 4 indicates equal agonism to bicalutamide (liability), and a score of 5 indicates higher agonism than bicalutamide (liability). For B5 and B7 a score of 1 indicates higher antagonist efficacy (highly desired activity) than benchmark compound enzalutamide, a score of 2 indicates equal antagonist efficacy to enzalutamide (desirable), a score of 3 indicates antagonist efficacy between enzalutamide and bicalutamide (less desirable activity), a score of 4 indicates antagonist efficacy equal to bicalutamide (liability), and a score of 5 indicates antagonist efficacy worse than bicalutamide (liability) For B9, Compounds that degrade AR (greater than 50% degradation at 10 μM) are indicated.

AR [2] = target: T2, AR (Homo sapiens, UniProt P10275); assay: Reporter gene assay, AR transcriptional (MMTV-Luc) in CV1 cells; type: cell-based; details: pcDNA-AR + MMTV-Luc, 0.1 nM R1881 plus test compound, 24 hrs, read-out: B1 = AR transcriptional IC50 (μM) in CV1 cells
T2 construct: expressed in transfected cells; host or cells: CV1 cells
T2 sequence (P10275 1-920): T1 sequence (P10275 1-920 T878A) with A878T
Procedure: Reporter Gene Assay (IC50 determination, Table 2, B1-B3). CV1 cells were seeded into 96-well cell culture plates and transfected with Lipofectin. For AR transcriptional assays, the DNA mixture consisted of pcDNA-AR, MMTV-Luc (androgen responsive reporter gene), and Renilla-Luc (for assessing transfection efficiency and toxicity). Following overnight incubation, cells were induced with hormone (0.1 nM R1881 (synthetic AR agonist) plus increasing concentrations of test compound) for 24 hrs. Cells were lysed and luciferase activity was quantified using Dual Luciferase Reagent (DLR). IC50 determination was assessed using GraphPad Prism software.

Compound: Cc1ccsc1C1C2=C(CC(C)(C)CC2=O)Nc2ccc3ncccc3c21 (centres unmarked) [Compound A114]
- B9 = AR degradation in LNCaP cells (In-Cell Western) (AR [1]): Degrader (Compounds that degrade AR (greater than 50% degradation at 10 μM) are indicated)
- IC50 (AR [2]): 1.1 µM

Compound: CC1(C)CC(=O)C2=C(C1)Nc1ccc3ncccc3c1C2c1ccc(Cl)s1 (centres unmarked) [Compound A64]
- B9 = AR degradation in LNCaP cells (In-Cell Western) (AR [1]): Degrader (Compounds that degrade AR (greater than 50% degradation at 10 μM) are indicated)
- IC50 (AR [2]): 1.9 µM

Compound: CC1(C)CC(=O)C2=C(C1)Nc1ccc3ncccc3c1C2c1ccc(F)c(Br)c1 (centres unmarked) [Compound A74]
- B9 = AR degradation in LNCaP cells (In-Cell Western) (AR [1]): Degrader (Compounds that degrade AR (greater than 50% degradation at 10 μM) are indicated)
- IC50 (AR [2]): 8.6 µM

Compound: CC1(C)CC(=O)C2=C(C1)Nc1ccc3nccnc3c1C2c1ccc(F)c(F)c1 (racemic) [Compound A83, (±)-12-(3,4-difluorophenyl)-9,9-dimethyl-8,9,10,12-tetrahydropyrazino[2,3-a]acridin-11(7H)-one]
- B9 = AR degradation in LNCaP cells (In-Cell Western) (AR [1]): Degrader (Compounds that degrade AR (greater than 50% degradation at 10 μM) are indicated)
- IC50 (AR [2]): 7.4 µM

Compound: CC1(C)CC(=O)C2=C(C1)Nc1ccc3ncccc3c1C2c1ccc(C#N)c(F)c1 (centres unmarked) [Compound A72]
- B9 = AR degradation in LNCaP cells (In-Cell Western) (AR [1]): Degrader (Compounds that degrade AR (greater than 50% degradation at 10 μM) are indicated)
- IC50 (AR [2]): 7.7 µM

Compound: CC1(C)CC(=O)C2=C(C1)Nc1ccc3ncccc3c1C2c1cc2ccccc2s1 (racemic) [Compound A92, (±)-12-(benzo[b]thiophen-2-yl)-9,9-dimethyl-8,9,10,12-tetrahydrobenzo[b][4,7]phenanthrolin-11(7H)-one]
- B9 = AR degradation in LNCaP cells (In-Cell Western) (AR [1]): Degrader (Compounds that degrade AR (greater than 50% degradation at 10 μM) are indicated)
- IC50 (AR [2]): 0.9 µM

Compound: CC1(C)CC(=O)C2=C(C1)Nc1ccc3ncccc3c1C2c1c[nH]c2ccc(F)cc12 (centres unmarked) [Compound A68]
- B9 = AR degradation in LNCaP cells (In-Cell Western) (AR [1]): Degrader (Compounds that degrade AR (greater than 50% degradation at 10 μM) are indicated)
- IC50 (AR [2]): > 10 µM

Compound: CC1(C)CC(=O)C2=C(C1)Nc1ccc3nccnc3c1C2c1ccc(Br)s1 (racemic) [Compound A100, (±)-12-(5-bromothiophen-2-yl)-9,9-dimethyl-8,9,10,12-tetrahydropyrazino[2,3-a]acridin-11(7H)-one]
- B9 = AR degradation in LNCaP cells (In-Cell Western) (AR [1]): Degrader (Compounds that degrade AR (greater than 50% degradation at 10 μM) are indicated)
- IC50 (AR [2]): 0.5 µM

Compound: CC1(C)CC(=O)C2=C(C1)Nc1ccc3cnccc3c1C2c1ccc(F)c(F)c1 (racemic) [Compound A91, (±)-12-(3,4-difluorophenyl)-9,9-dimethyl-8,9,10,12-tetrahydrobenzo[j][3,7]phenanthrolin-11(7H)-one]
- B9 = AR degradation in LNCaP cells (In-Cell Western) (AR [1]): Degrader (Compounds that degrade AR (greater than 50% degradation at 10 μM) are indicated)
- IC50 (AR [2]): 1.4 µM

Compound: Cc1nc2ccc3c(c2nc1C)C(c1ccc(F)c(F)c1)C1=C(CC(C)(C)CC1=O)N3 (racemic) [Compound A84, (±)-12-(3,4-difluorophenyl)-2,3,9,9-tetramethyl-8,9,10,12-tetrahydropyrazino[2,3-a]acridin-11(7H)-one]
- B9 = AR degradation in LNCaP cells (In-Cell Western) (AR [1]): Degrader (Compounds that degrade AR (greater than 50% degradation at 10 μM) are indicated)
- IC50 (AR [2]): 55 µM

Compound: CC1(C)CC(=O)C2=C(C1)Nc1ccc3ncccc3c1C2c1ccccn1 (centres unmarked) [Compound A57, 9,9-dimethyl-12-(pyridin-2-yl)-8,9,10,12-tetrahydrobenzo[b][4,7]phenanthrolin-11(7H)-one]
- B9 = AR degradation in LNCaP cells (In-Cell Western) (AR [1]): Degrader (Compounds that degrade AR (greater than 50% degradation at 10 μM) are indicated)
- IC50 (AR [2]): > 10 µM

Continued, in another order:

- IC50 (AR [2]): > 10 µM
Compound: CC1(C)CC(=O)C2=C(C1)Nc1cc(N3CCCC3)ccc1C2c1ccc(F)c(F)c1 (racemic) [Compound A90, (±)-9-(3,4-difluorophenyl)-3,3-dimethyl-6-(pyrrolidin-1-yl)-3,4,9,10-tetrahydroacridin-1(2H)-one]
- B9 = AR degradation in LNCaP cells (In-Cell Western) (AR [1]): Degrader (Compounds that degrade AR (greater than 50% degradation at 10 μM) are indicated)

- IC50 (AR [2]): > 10 µM
Compound: Cc1ccsc1C1C2=C(CC(C)(C)CC2=O)Nc2cc(N3CCCC3)ccc21 (centres unmarked) [Compound A116]
- B9 = AR degradation in LNCaP cells (In-Cell Western) (AR [1]): Degrader (Compounds that degrade AR (greater than 50% degradation at 10 μM) are indicated)

- IC50 (AR [2]): > 10 µM
Compound: CC1(C)CC(=O)C2=C(C1)Nc1cc(N3CCCC3)ccc1C2c1ccc(Cl)s1 (racemic) [Compound A97, (±)-9-(5-chlorothiophen-2-yl)-3,3-dimethyl-6-(pyrrolidin-1-yl)-3,4,9,10-tetrahydroacridin-1(2H)-one]
- B9 = AR degradation in LNCaP cells (In-Cell Western) (AR [1]): Degrader (Compounds that degrade AR (greater than 50% degradation at 10 μM) are indicated)

- IC50 (AR [2]): 1.2 µM
Compound: CC1(C)CC(=O)C2=C(C1)Nc1ccc3ccccc3c1C2c1ccc([N+](=O)[O-])cc1 (centres unmarked) [Compound A51, 9,9-dimethyl-12-(4-nitrophenyl)-8,9,10,12-tetrahydrobenzo[a]acridin-11(7H)-one]
- B9 = AR degradation in LNCaP cells (In-Cell Western) (AR [1]): Degrader (Compounds that degrade AR (greater than 50% degradation at 10 μM) are indicated)

- IC50 (AR [2]): > 10 µM
Compound: CC1(C)CC(=O)C2=C(C1)Nc1ccc3ncccc3c1C2c1ccc(C#N)cc1 (centres unmarked) [Compound A55]
- B9 = AR degradation in LNCaP cells (In-Cell Western) (AR [1]): Degrader (Compounds that degrade AR (greater than 50% degradation at 10 μM) are indicated)
